Results published in US20240109941A1 (University of California, published 2024).
Where two headings read alike, the source gives them in different places.

Tests used:
[1] = test system: defense marker genes, including PR2, PAL, and CHI; format: in vivo; settings: 10 μM spray, Carrizo seedlings
Liberibacter crescens = format: cell-based; settings: Liberibacter crescens 10^6/mL; for anti-bacterial activity (viability staining, confocal microscopy): 30 μM, 2 hours
[2] = molecular target: the molecule itself; test: native PAGE, self-association
E. coli = format: cell-based; settings: compared to L. crescens; concentrations shown in FIG. 5
B. thuringiensis = format: cell-based; settings: compared to L. crescens; concentrations shown in FIG. 5

## SHVEYANLFLANLEKVLVIDYK [CghSAMPa helix 2, polypeptide containing CghSAMPa helix 2]
[1]; 1 day post-treatment
  induction of defense response (PR2, PAL, CHI expression normalized to Ubiquitin): induced a defense response
[1]; time course up to 7 days post treatment
  duration of defense gene induction: maintained for the 7-day time period
Liberibacter crescens
  anti-bacterial activity (viability staining, confocal microscopy): plays an important role in anti-bacterial activity
Liberibacter crescens; listed as helix 2
  anti-bacterial activity (viability staining, confocal microscopy): found to be a functional SAMP
Liberibacter crescens; 5 hours, same concentration or triple dosages of helix 2 vs full length
  anti-bacterial activity compared to full length CghSAMPa (viability staining): retained much of the anti-bacterial activity of full length SAMP

B1: CghSAMPa helix 2 (peptide)
peptide: SHVEYANLFLANLEKVLVIDYK
notes: 22-residue fragment of CghSAMPa holding only the second alpha-helix; In the native gel it ran as polymers, likely hexamers; also called MaSSAMP-helix2; SAMP-helix 2
[2]
  binding result: binds

B2: CghSAMPa (full length stable antimicrobial peptide) (peptide)
chain: MCCNRGKNVSIENLHQGFTHIFESTFESTEGVAEYVSHPSHVEYANLFLANLEKVLVIDYKPTTVRV
notes: In the native gel it ran as polymers, 'likely hexamers based on the molecular weight'; also called MaSSAMP; Syd72SSAMP1
E. coli
  tolerance of E. coli to SAMP treatment: more tolerant of SAMP treatment compared to L. crescens
[2]
  binding result: binds
B. thuringiensis
  tolerance of B. thuringiensis to SAMP treatment: highly tolerant
